We go through three compounds from paper PMC10733463, “Berberine-microbiota interplay: orchestrating gut health through modulation of the gut microbiota and metabolic transformation into bioactive metabolites” (Frontiers in Pharmacology, 2023).

Read-outs that look alike come from different tables or passages of the source.

The subject of one data set is caecal microbiota. Briefly: SCFA quantification in caecal microbiota cultures supplemented with berberine or berberrubine. The note with it: 24 h. The data set is classed as cell-based, broiler chicken. The protocol: As berberine and its demethylated metabolites correlated with SCFAs in vivo, their ability to directly influence SCFA metabolism was assessed in vitro. […] Cultures were centrifuged at 3,724 g for 5 min 1 mL 1:2 diluted supernatant in Milli-Q water was used for SCFA analysis. Acetate, propionate and butyrate were quantified using the GC-FID method described by ([De […] et al., 2010]). This method involves the extraction of SCFA from samples with diethyl ether after the addition of 2-methyl hexanoic acid as an internal standard.

For data set [1] the following is noted: rats, 2021, cited from earlier work; for Total recovery in feces: ref Ma et al., 2013, Feng et al.
A short description of data set [2]: UPLC-MS/MS quantification of berberine and metabolites in ileal and caecal content. The data set is classed as in vivo, Ross 308 broiler chickens. The following applies: 21 days. The source says:
The study was undertaken following the guidelines of the ethics committee of the Faculty of Veterinary Medicine and Bioscience Engineering, Ghent University, in accordance with the EU Directive 2010/63/EU. One-day-old Ross 308 male broilers were obtained from a local hatchery and housed in pens on wood shavings. They were allotted into 4 groups, with three replicate pens per group each housing 8 chickens. The animals were not vaccinated. Water and commercial starter feed (day 1–12, FARM 1 Mash, Country’s Best, Versele Laga, Deinze, Belgium) or grower (day 13–21, FARM 2 mash, Country’s Best, Versele Laga, Deinze, Belgium) were provided ad libitum. The control group received the standard non-supplemented diets, whereas the chickens in other groups were fed the same feed supplemented with 0.1, 0.5 or 1 g berberine/kg feed throughout the whole trial period. At day 21, 4 birds per pen were weighted then euthanized by sodium pentobarbital injection for sampling. Individual jejunal, ileal, caecal and colonic contents were stored at −20°C for microbiota composition analysis (16S rRNA gene sequencing). Additionally, ileal and caecal content samples were collected and stored at −20°C for berberine and berberine-derived metabolite quantification. Duodenal tissue samples were collected and fixed in 4% phosphate buffered formaldehyde for histological analysis. Blood samples were collected in heparin tubes and centrifuged at 524 g for 10 min to recover the plasma fraction, which was further mixed with 17 mg/mL L-ascorbic acid for dihydroberberine stabilization, and stored at −20°C for berberine and berberine-derived metabolite quantification.
The column temperature was maintained at 25°C. The autosampler temperature was set at 10°C.
250 mg of ileal or caecal content was weighed in a 15 mL polypropylene centrifuge tube and 250 µL of ascorbic acid 170 mg/mL solution was added for stabilization of dihydroberberine, followed by brief vortexing. Subsequently, 25 µL of an internal standard solution containing 250 μg/mL of berberine-d6 and 2.5 μg/mL tetrahydropalmatine were added, followed by brief vortexing. A 2.5 mL volume of extraction solvent was then added, consisting of a 1% (v/v) formic acid solution in methanol. The sample was put on a rotary shaker set at 80 rpm for 20 min, followed by centrifugation (3,720 g, 10 min, 4°C). The supernatant was then diluted, by a factor 5 for measurement of low abundance components, and by a factor 2,000 for measurement of high abundance components. The 1/5 diluted sample extract was prepared directly in an autosampler vial as follows: 200 µL sample extract were mixed with 100 µL ascorbic acid 170 mg/mL solution and 700 µL Milli-Q water. For the 1/2,000 diluted sample extract, an intermediate 1/100 sample dilution was prepared by combining 500 µL sample extract and 49.5 mL of Milli-Q water. 50 μL was then transferred in an autosampler vial followed by the addition of 950 µL of Milli-Q water. For both dilutions, a 5 µL sample aliquot was injected onto the UPLC-MS/MS apparatus. Quantification was based on the ratio of the analyte peak area compared to the peak area of the internal standard tetrahydropalmatine for 1/5 diluted sample extracts, and on the ratio of the analyte peak area compared to the peak area of the internal standard berberine-d6 for 1/2,000 diluted sample extracts.
Calibration standards and quality control samples were prepared as follows: 250 mg of blank ileal or caecal content were supplemented with 250 µL of ascorbic acid 170 mg/mL solution, 25 µL mixed solution of berberine and metabolites (with the exception of dihydroberberine) at different levels, 25 µL of dihydroberberine solution, stabilized with 17 mg/mL ascorbic acid, at different levels and 25 µL of an internal standard solution containing 0.625 μg/mL of berberine-d6 and 2.5 μg/mL tetrahydropalmatine. The calibration curve was in the 62.5–5,000 ng/g range, and included 62.5, 125, 250, 500, 1,000, 2,500, and 5,000 ng/g levels. […]

Where [3] appears, read: oral administration of berberine, ref Feng et al.

For the compound `COc1ccc2cc3[n+](cc2c1OC)CCc1cc2c(cc1-3)OCO2` [Berberine, Berberine chloride], the “SCFA production in caecal microbiota cultures” value with caecal microbiota (25, 2.5 µM) was “did not significantly affect”. For the same compound, the entries for the “Total recovery in feces” value in data set [1] (oral berberine 48.2 mg/kg) and in data set [1] (oral berberine 200 mg/kg) were 8.4% and 19.05%, respectively. For the same compound, the “Ratio caecum / ileum (concentration)” value is recorded as 0.07 in data set [2] (0.1 g berberine/kg feed), 0.14 in data set [2] (0.5 g berberine/kg feed) and 0.22 in data set [2] (1 g berberine/kg feed).
For the compound `COc1ccc2cc3[n+](cc2c1O)CCc1cc2c(cc1-3)OCO2` [Berberrubine, berberrubine chloride], the “Concentrations of acetate, butyrate and propionate in caecal microbiota cultures” value in the data set on caecal microbiota (higher concentration (2.5 µM)) is “increased”. Moreover, the Excretion in bile in data set [1] (setting [3]) is given as 2.6%. In data set [1] (setting [3]), the Excretion in feces is reported as 18.6%. In addition, the Excretion in urine in data set [1] (setting [3]) is listed as 1.2%. The “Total recovery in feces” value is listed as 18.6% in data set [1] (oral berberine 48.2 mg/kg) and 1.14% in data set [1] (oral berberine 200 mg/kg). In addition, the “Ratio caecum / ileum (concentration)” value is 21.43 in data set [2] (0.1 g berberine/kg feed), 29.98 in data set [2] (0.5 g berberine/kg feed) and 63.80 in data set [2] (1 g berberine/kg feed).
Turning to `COc1cc2c(cc1O)CC[n+]1cc3c(OC)c(OC)ccc3cc1-2` [Jatrorrhizine, Jatrorrhizine chloride], the “Ratio caecum / ileum (concentration)” value is on record as 0.31 in data set [2] (0.1 g berberine/kg feed), 0.49 in data set [2] (0.5 g berberine/kg feed) and 0.72 in data set [2] (1 g berberine/kg feed).
